{
  "source": "patent US10201564B2",
  "about": "“Methods of using inhaled nitric oxide gas for treatment of acute respiratory distress syndrome in children” (Mallinckrodt Hospital Products IP Limited, priority 2014, dated 2019)",
  "format_in_all_cases": "in vivo, human",
  "key": {"[1]": {"test_system": "pediatric subjects with acute hypoxemic respiratory failure (AHRF)", "test": "Pediatric AHRF study: percent methemoglobin levels", "conditions": "5 ppm", "procedure": "(§1) Standardized ventilatory management and weaning procedures were used. Ventilatory management was used based on an “open lung approach” using positive end-expiratory pressure (PEEP) to increase lung volume and limiting tidal volumes to reduce plateau pressures. Subjects received nitric oxide for inhalation at 5 ppm or placebo (100% Grade 5 nitrogen gas) into the inspiratory limb of the ventilator circuit using a blinded version of the INOvent® delivery system. The subjects were treated until Day 28 or extubation, whichever occurred first. Subjects were assessed daily using a spontaneous breathing trial, according to the institution's standard of care. Arterial blood gases (ABG), ventilator settings, methemoglobin, oxygenation index, systolic blood pressure, diastolic blood pressure, Pediatric Risk of Mortality (PRISM) III score, and subject positioning (prone or supine) were performed/recorded at specified times during the study. Selected centers also performed plasma cytokine assays, bronchoalveolar lavage fluid (BALF) assays, and a 6-month follow-up assessment.\nThe following assessments were made at baseline: arterial blood gases, ventilator settings, methemoglobin, prone position, PRISM III score, oxygenation index, systolic and diastolic blood pressure, bronchoalveolar lavage fluid assay and plasma cytokine.\nThe following assessments were made at 4 hours±1 hour after the start of therapy: arterial blood gases, ventilator settings and methemoglobin.\nThe following assessments were made at 24 hours±2 hours after the start of therapy: arterial blood gases, ventilator settings, methemoglobin, systolic and diastolic blood pressure and plasma cytokine.\nPercent methemoglobin levels were obtained at baseline and at Hours 4 and 24. […] These levels were well below levels that would have necessitated discontinuation of treatment."}, "[2]": {"test_system": "patients with moderately severe Acute Lung Injury (ALI)", "test": "Adult ALI/ARDS study: safety results (adverse events)", "conditions": "initial 28-day study period", "procedure": "A large-scale, randomized, blinded, placebo-controlled study was carried out in the Intensive Care Units (ICUs) of 46 US hospitals to evaluate the efficacy of low-dose (5 ppm) iNO in 385 patients with moderately severe Acute Lung Injury (ALI). The primary endpoint of this study was number of days alive and off assisted breathing.\nSafety results for the initial 28-day study period have been reported and are summarized briefly here. A total of 630 adverse events (AEs) were reported for patients treated with iNO versus 666 events for those who received placebo. Respiratory system AEs occurred in 51% versus 61% of patients receiving iNO and placebo, respectively, primarily due to higher frequencies of pneumonia, pneumothorax, and apnea in the placebo group. Frequency of other AEs was similar in both groups.\nPatients were randomly assigned to receive either inhaled placebo gas (nitrogen) or 5 ppm of iNO (INO Therapeutics Inc., Port Allen, La.). All patients, healthcare professionals, and investigators were blinded to the assigned treatment. Inhaled NO was administered via INOvent® delivery system (Datex-Ohmeda, Madison, Wis.) that blended treatment gas (nitrogen or NO at 100-ppm balance nitrogen) 1:20 with ventilator gases to achieve a target ppm value in the inspiratory limb of the ventilator."}, "[3]": {"test_system": "pediatric subjects with acute hypoxemic respiratory failure (AHRF)", "test": "Pediatric AHRF study, nitric oxide 5 ppm versus placebo: efficacy and subject outcome", "procedure": "This was a prospective, multicenter, randomized, double-blind, placebo-controlled, parallel-group study of the safety and efficacy of inhaled nitric oxide in pediatric subjects with acute hypoxemic respiratory failure (AHRF). The subjects were randomized to receive either 5 ppm inhaled nitric oxide or placebo.\nNitric Oxide for inhalation at 5 ppm was administered continuously into the inspiratory limb of the ventilator circuit in mechanically ventilated subjects using a blinded version of the INOvent® delivery system.\nSubjects received 100% treatment gas (nitric oxide 5 ppm or placebo [nitrogen gas]) until Day 28 or extubation, whichever occurred first.\nPlacebo consisting of 100% Grade 5 nitrogen gas was administered continuously into the inspiratory limb of the ventilator circuit in mechanically ventilated subjects using a blinded version of the INOvent® delivery system at a rate equivalent to a 5 ppm dose of nitric oxide.\nThis was a prospective, multicenter, randomized, double-blind, placebo-controlled, Phase III study to assess the effects of nitric oxide for inhalation in the treatment of acute hypoxic respiratory failure (AHRF) in pediatric subjects. The study population consisted of male and female pediatric subjects, aged 44 weeks postconceptional age to 16 years age, who were admitted to the pediatric intensive care unit (PICU) and who required intubation because of AHRF. The inclusion/exclusion criteria are described in the Patients section below.\nas §1\nInclusion criteria for patients were as follows: • 1. 44 weeks post-conceptional age to 16 years of age • 2. Oxygenation Index (OI)≥12 cm H2O/mmHg (as determined by two separate measurements taken 30 minutes to 4 hours apart) • 3. Recent chest x-ray (within 24 hours) showing at least unilateral infiltrates • 4. Mechanically ventilated (oral or nasopharyngeal)<7 days\nExclusion criteria for patients were as follows: • 1. Immunocompromised • 2. Received a bone marrow transplant • 3. Active oncological condition • 4. Persistent right to left intracardiac shunt • 5. Cardiovascular surgery within the last 14 days • 6. Status asthmaticus • 7. Decision by primary care physician not to provide full support (futility) • 8. Received treatment with nitric oxide for inhalation or other investigational medications with 24 hours prior to study initiation. • 9. Chronically ventilated • 10. Pregnant Study Design and Schedule of Assessments:\nExtubation was considered when: • i. Pressure support of <10 cm H2O • ii. FiO2<0.60 • iii. PEEP<6 cm H2O • iv. Nitric oxide has been discontinued for 30 minutes\nExtubation occurred within 12 hours of meeting the above criteria. If a patient met the above criteria but was not extubated within 12 hours, the reason (i.e. airway protection, surgery, secretions clearance, etc.) was documented."}, "[4]": {"conditions": "5 ppm, discharge evaluation, N 26"}, "[5]": {"conditions": "5 ppm, in words, approached statistical significance"}},
  "note": "“And” between values parts separate entries of the source, which are not always exact repeats. Equal values may be shown once. “Also recorded” adds a separate entry of the source.",
  "data": [
    {"smiles": "[N]=O", "note": "[Nitric Oxide, nitric oxide]", "values": [
      {"measurement": "Methemoglobin level, Mean (SD)", "setting": "[1]; 4 Hours", "result": "0.64 (0.33) %"},
      {"measurement": "Methemoglobin level, Median", "setting": "[1]; 4 Hours", "result": 0.8, "unit": "%"},
      {"measurement": "Methemoglobin level, Mean (SD)", "setting": "[1]; 24 Hours", "result": "0.52 (0.37) %"},
      {"measurement": "Methemoglobin level, Median", "setting": "[1]; 24 Hours", "result": 0.5, "unit": "%"},
      {"measurement": "Methemoglobin level, Mean (SD)", "setting": "[1]; Baseline", "result": "0.56 (0.35) %"},
      {"measurement": "Methemoglobin level, Median", "setting": "[1]; Baseline", "result": 0.5, "unit": "%"},
      {"measurement": "Percent methemoglobin levels versus placebo group", "setting": "[1]; at most time points, in words", "result": "equal to or less than"},
      {"measurement": "percent methemoglobin levels", "setting": "[1]; baseline, Hours 4 and 24, in words", "result": "within normal limits"},
      {"measurement": "Frequency of other (non-respiratory) AEs versus placebo", "setting": "[2]", "result": "similar"},
      {"measurement": "Respiratory system AEs, patients", "setting": "[2]; placebo 61%", "result": 51, "unit": "%"},
      {"measurement": "adverse events (AEs) reported, total", "setting": "[2]; placebo 666", "result": 630},
      {"measurement": "completed 28 days of the study or successfully extubated", "setting": "[3]; 5 ppm", "result": "21 (80.8%) n (%)"},
      {"measurement": "Days on supplemental O2, Median", "setting": "[3]; 5 ppm, N 10", "result": 18.1, "unit": "days"},
      {"measurement": "Number of days on supplemental O2, Mean (SD)", "setting": "[3]; 5 ppm, N 10", "result": "19.6 (13.4) ^ days and 19.6 (13.4) days"},
      {"measurement": "Days originally intubated, Median", "setting": "[3]; 5 ppm, N 20", "result": 13.7, "unit": "days"},
      {"measurement": "Number of days originally intubated, Mean (SD)", "setting": "[3]; 5 ppm, N 20", "result": "13.6 (6.8) ^ days and 13.6 (6.8) days"},
      {"measurement": "Days in PICU, Median", "setting": "[3]; 5 ppm, N 22", "result": 17.3, "unit": "days"},
      {"measurement": "Number of days in PICU, Mean (SD)", "setting": "[3]; 5 ppm, N 22", "result": "17.8 (8.3) ^ days and 17.8 (8.3) days"},
      {"measurement": "Clinical sepsis", "setting": "[3]; [4]", "result": "4 (15.4%) n (%)"},
      {"measurement": "Died (cause of death related to pulmonary condition)", "setting": "[3]; [4]", "result": "0 (0) ^ n (%)"},
      {"measurement": "ECMO at any time during treatment", "setting": "[3]; [4]", "result": "0 (0) ^ n (%)"},
      {"measurement": "HFOV at any time during treatment", "setting": "[3]; [4]", "result": "11 (42.3%) n (%)"},
      {"measurement": "Intubated on Day 28", "setting": "[3]; [4]", "result": "2 (7.7%) n (%)"},
      {"measurement": "Pneumothorax", "setting": "[3]; [4]", "result": "3 (11.5%) n (%)"},
      {"measurement": "Receiving supplemental O2 on Day 28", "setting": "[3]; [4]", "result": "11 (42.3%) n (%)"},
      {"measurement": "Survival", "setting": "[3]; [4]", "result": "23 (88.5%) n (%)"},
      {"measurement": "VAP (ventilator-associated pneumonia)", "setting": "[3]; [4]", "result": "5 (19.2%) n (%)"},
      {"measurement": "days in the PICU versus placebo", "setting": "[3]; 5 ppm, in words", "result": "lower"},
      {"measurement": "duration (mean number of days) of supplemental oxygen versus placebo", "setting": "[3]; 5 ppm, in words", "result": "higher"},
      {"measurement": "frequency of extracorporeal membrane oxygenation versus placebo", "setting": "[3]; 5 ppm, in words", "result": "lower"},
      {"measurement": "frequency of high frequency oscillatory ventilation versus placebo", "setting": "[3]; 5 ppm, in words", "result": "lower"},
      {"measurement": "frequency of pneumothorax versus placebo", "setting": "[3]; 5 ppm, in words", "result": "lower"},
      {"measurement": "frequency of ventilator-associated pneumonia at discharge versus placebo", "setting": "[3]; 5 ppm, in words", "result": "higher"},
      {"measurement": "mean duration (number of days) of intubation versus placebo", "setting": "[3]; 5 ppm, in words", "result": "lower"},
      {"measurement": "duration of mechanical ventilation (MV)", "setting": "[3]; [5]", "result": "shortened"},
      {"measurement": "rate of survival", "setting": "[3]; [5]", "result": "improved"},
      {"measurement": "rate of ECMO free survival versus placebo", "setting": "[3]; 5 ppm, in words, listed as iNO", "result": "significantly greater; also recorded: significantly higher"},
      {"measurement": "Day 28 (completed 28 days)", "setting": "[3]; 5 ppm, n = 26, subject outcome", "result": "1 (3.8%) n (%)"},
      {"measurement": "Death", "setting": "[3]; 5 ppm, n = 26, subject outcome", "result": "2 (7.7%) n (%)"},
      {"measurement": "Successful extubation", "setting": "[3]; 5 ppm, n = 26, subject outcome", "result": "20 (76.9%) n (%)"},
      {"measurement": "Total discontinued", "setting": "[3]; 5 ppm, n = 26, subject outcome", "result": "5 (19.2%) n (%)"},
      {"measurement": "rate of ECMO free survival", "setting": "[3]; 5 ppm, placebo 15 of 29, p<0.01", "result": "22 of 24"},
      {"measurement": "Survival at 28 days", "setting": "[3]; 5 ppm, placebo 21 of 29, p=0.07", "result": "22 of 24"},
      {"measurement": "survival rate", "setting": "[3]; 5 ppm, placebo 72.4%", "result": 88.5, "unit": "%"},
      {"measurement": "oxygenation index (OI)", "setting": "[3]; 4 hours, 5 ppm, placebo 26.1+/−19.5, p=0.09", "result": "14.3+/−5.9"},
      {"measurement": "oxygenation index (OI)", "setting": "[3]; 12 hours, 5 ppm, placebo 24.5+/−22.0, p=0.04", "result": "14.7+/−6.0"},
      {"measurement": "oxygenation index (OI)", "setting": "[3]; 24 hours, 5 ppm, placebo 16.7+/−9.9, p=0.53", "result": "15.2+/−10.8"},
      {"measurement": "number of days that a child is ventilator-free at 28 days after the start of iNO therapy", "setting": "[3]; in words", "result": "increased"}
    ]}
  ]
}
